# Results taken from US9133139B2, “Fluoroalkyl-1,4-benzodiazepinone compounds” (BRISTOL-MYERS SQUIBB COMPANY, priority 2012, dated 2015).
# Assays:
# human Notch 1 = assay: Notch-CBF1 Transactivation Assay (luciferase reporter, transfected HeLa cells), Notch 1; format: cell-based; details: read-out: Notch 1 (IC50); HeLa cells transfected with truncated Notch 1 and CBF1 luciferase reporter, 18 hours incubation
# Source text: (§1) Notch-CBF1 Transactivation Assay
# (§2) The Notch-CBF1 (C-promoter binding factor I) cell based transactivation assay is based on the ability of the released Notch intracellular domain fragments (NICDs) to function as transcription factors in conjunction with CBF1 and other nuclear factors. Luciferase assays were used to measure the antagonism of Notch-CBF1 transcriptional activity. HeLa cervical cancer cells are transiently co-transfected with pCDNA3.1/Hygro plasmids containing truncated Notch 1, Notch 2, Notch 3, or Notch 4 receptors and a PGL3 luciferase reporter vector containing 4 copies of CBF1 binding site. The cells were then tested for Notch-CBF1 activity in the absence or presence of test compounds. HeLa cells, maintained in DMEM (high glucose with HEPES), 1× glutamine/penicillin/streptomycin and 10% Fetal Bovine serum, were transiently transfected in a T175 Flask (4.5×10^6 cells/flask) using the Monster Transfection Kit (Minis #MIR2906) according to manufacturers specifications. Table 2 denotes respective DNA quantity for the transfections.
# (§3) Assay media (5 μL) containing test compounds in final concentrations ranging from 5 μM to 8.4×10^−5 μM (3 fold serial dilutions) were added to the cells and the cell plates were then incubated for 18 hours at 37° C. and 5% CO2. Control wells contained DMSO vehicle (total counts) or 0.5 μM of an in-house small molecule inhibitor (background counts). Duplicates were used for each sample. Luciferase activity was measured after a 20-minute incubation with 50 μl STEADY-GLO® luciferase reagents according to manufacturer's specifications (Promega, Cat. #E2550) and analyzed by Envision plate reader (PerkinElmer, Boston, Mass.).
# (§4) The antagonist effect of compounds was expressed as 100×[1−(average sample−average background)/(average total−average background)] where sample is the luciferase activity in the presence of test compound, background is equal to the luciferase activity in the presence of the small molecule inhibitor control and the total is signal induced in DMSO wells.
# human Notch 3 = assay: Notch-CBF1 Transactivation Assay (luciferase reporter, transfected HeLa cells), Notch 3; format: cell-based; details: read-out: Notch 3 (IC50); HeLa cells transfected with truncated Notch 3 and CBF1 luciferase reporter, 18 hours incubation
# Source text: as §1, §2, §3, §4
# [1] = Human metabolic stability half-life assay (liver microsomes); format: in vitro ADME; details: pH 7.4, human liver microsomes, CYP-mediated (NADPH-dependent), 0.5 μM compound, 45-minute time course, read-out: HLM (t1/2, min)
# Method: Metabolic Stability Half-Life Panel
# Result Interpretation Guideline
# Incubation with Liver Microsomes
# Sample Analysis—Instrumentation
# TALL-1 = assay: Human Tumor Xenograft Models in Mice, TALL-1; format: in vivo; details: for Antitumor Activity in TALL-1 (LCK), BID dosing: BID × 10, TALL-1 xenograft in NOD-SCID mice; for antitumor activity with oral administration (PO): Human Tumor Xenograft Models in mice
# Method: Human Tumor Xenograft Models in Mice
# Mice were fed food and water ad libitum.
# Preclinical Chemotherapy Trials
# When death occurred, the day of death was recorded.
# In Vivo Antitumor Activity
# [2] = High Throughput (HT) Metabolic Stability Panel, human microsomes; format: in vitro ADME; details: ten-minute incubation, control compound expected values
# Method: (§5) High Throughput (HT) Metabolic Stability Panel
# (§6) Each compound was tested in duplicate.
# (§7) Methods and Materials Incubation with Liver Microsomes
# (§8) Peak integration was performed with the XCALIBUR® software.
# (§9) A set of three compounds was tested along with the test compound in each assay plate.
# [3] = High Throughput (HT) Metabolic Stability Panel, rat microsomes; format: in vitro ADME; details: ten-minute incubation, control compound expected values
# Method: as §5, §6, §7, §8, §9
# [4] = High Throughput (HT) Metabolic Stability Panel, mouse microsomes; format: in vitro ADME; details: ten-minute incubation, control compound expected values
# Method: as §5, §6, §7, §8, §9
# [5] = High Throughput (HT) Metabolic Stability Panel, dog microsomes; format: in vitro ADME; details: ten-minute incubation, control compound expected values
# Method: as §5, §6, §7, §8, §9
# [6] = High Throughput (HT) Metabolic Stability Panel, monkey microsomes; format: in vitro ADME; details: ten-minute incubation, control compound expected values
# Method: as §5, §6, §7, §8, §9
Structure (SMILES),IC50 (human Notch 1) [nM],IC50 (human Notch 3) [nM],half-life at 0.5 μM [1] [min],antitumor activity with oral administration (PO) (TALL-1),also measured
"NC(=O)[C@@H](c1cccnc1)[C@@H](CCC(F)(F)F)C(=O)N[C@H]1N=C(c2ccccc2)c2ccccc2NC1=O [Example 10, (2R,3R)—N1-((S)-2-Oxo-5-phenyl-2,3-dihydro-1H-benzo[e][1,4]diazepin-3-yl)-3-(pyridin-3-yl)-2-(3,3,3-trifluoropropyl)succinamide]",19.3,22.9,–,–,–
"NC(=O)[C@@H](c1ccccc1)[C@@H](CCC(F)(F)F)C(=O)N[C@H]1N=C(c2ccccc2)c2cccc(OC3CC3)c2NC1=O [Example 26, (2R,3R)—N1-((S)-9-Cyclopropoxy-2-oxo-5-phenyl-2,3-dihydro-1H-benzo[e][1,4]diazepin-3-yl)-3-phenyl-2-(3,3,3-trifluoropropyl)succinamide]",–,–,≥ 30,showed antitumor activity,"Antitumor Activity in TALL-1 (LCK), BID dosing (TALL-1; Dose 10 (unit not given), oral): 1.4 LCK"
"COc1cccc2c1NC(=O)[C@@H](NC(=O)[C@H](CCC(F)(F)F)[C@@H](C(N)=O)c1ccccc1)N=C2c1ccccc1 [Example 21, (2R,3R)—N1-((S)-9-Methoxy-2-oxo-5-phenyl-2,3-dihydro-1H-benzo[e][1,4]diazepin-3-yl)-3-phenyl-2-(3,3,3-trifluoropropyl)succinamide]",–,–,≥ 30,showed antitumor activity,"Antitumor Activity in TALL-1 (LCK), QD dosing (TALL-1; Dose 40 (unit not given), oral, QD, TALL-1 xenograft in NOD-SCID mice): 2.7 LCK"
"Cc1cccc2c1NC(=O)[C@@H](NC(=O)[C@H](CCC(F)(F)F)[C@@H](C(N)=O)c1ccccc1)N=C2c1ccccc1 [Example 30, (2R,3R)—N1-((S)-9-Methyl-2-oxo-5-phenyl-2,3-dihydro-1H-benzo[e][1,4]diazepin-3-yl)-3-phenyl-2-(3,3,3-trifluoropropyl)succinamide]",–,–,≥ 30,showed antitumor activity,"Antitumor Activity in TALL-1 (LCK), BID dosing (TALL-1; Dose 20 (unit not given), oral): 1.2 LCK"
"Cc1cccc2c1NC(=O)[C@@H](NC(=O)[C@H](CCC(F)(F)F)[C@@H](C(N)=O)c1conc1C)N=C2c1ccc(F)cc1 [Example 33, (2R,3R)—N1-((S)-5-(4-Fluorophenyl)-9-methyl-2-oxo-2,3-dihydro-1H-benzo[e][1,4]diazepin-3-yl)-3-(3-methylisoxazol-4-yl)-2-(3,3,3-trifluoropropyl)succinamide]",19,11.5,≥ 30,–,–
"COc1cc(C#N)cc2c1NC(=O)[C@@H](NC(=O)[C@H](CCC(F)(F)F)[C@@H](C(N)=O)c1ccccc1)N=C2c1ccccc1 [Example 25, (2R,3R)—N1-((S)-7-Cyano-9-methoxy-2-oxo-5-phenyl-2,3-dihydro-1H-benzo[e][1,4]diazepin-3-yl)-3-phenyl-2-(3,3,3-trifluoropropyl)succinamide]",24.2,19.1,–,–,–
CCc1nn(CCCN2CCN(c3cccc(Cl)c3)CC2)c(=O)n1CCOc1ccccc1 [Nefazodone],–,–,–,–,"Average Percent Remaining ± SD, Human [2]: 0.4 ± 0.4%; Average Percent Remaining ± SD, Rat [3]: 0.7 ± 0.6%; Average Percent Remaining ± SD, Mouse [4]: 0.4 ± 0.3%; Average Percent Remaining ± SD, Dog [5]: 0.4 ± 0.4%; Average Percent Remaining ± SD, Monkey [6]: 0.6 ± 0.5%"
"Cc1cccc2c1NC(=O)[C@@H](NC(=O)[C@H](CCC(F)(F)F)[C@@H](C(N)=O)c1ccccc1)N=C2c1cccc(F)c1 [Example 5, (2R,3R)—N1-((S)-5-(3-Fluorophenyl)-9-methyl-2-oxo-2,3-dihydro-1H-benzo[e][1,4]diazepin-3-yl)-3-phenyl-2-(3,3,3-trifluoropropyl)succinamide]",–,14.2,≥ 30,–,–
"Cc1nocc1[C@H](C(N)=O)[C@@H](CCC(F)(F)F)C(=O)N[C@H]1N=C(c2ccccc2)c2ccccc2N(c2ccc(Cl)cn2)C1=O [Example 23, (2R,3R)—N-((3S)-1-(5-Chloro-2-pyridinyl)-2-oxo-5-phenyl-2,3-dihydro-1H-1,4-benzodiazepin-3-yl)-3-(3-methyl-4-isoxazolyl)-2-(3,3,3-trifluoropropyl)succinamide]",15.4,13.7,≥ 30,–,–
"NC(=O)[C@@H](c1ccccc1)[C@@H](CCC(F)(F)F)C(=O)N[C@H]1N=C(c2ccccc2)c2ccccc2N(c2ccc(Cl)cn2)C1=O [Example 22, (2R,3R)—N-((3S)-1-(5-Chloro-2-pyridinyl)-2-oxo-5-phenyl-2,3-dihydro-1H-1,4-benzodiazepin-3-yl)-3-phenyl-2-(3,3,3-trifluoropropyl)succinamide]",16,11.6,–,–,–
